Inconclusive results are not listed.
Tested on: nude mice, HT29 intrarenal xenograft, tumor weight T/C
Assay: NCI In Vivo Anticancer Drug Screen. Data for tumor model HT29;CX-1 Human Adenocarcinoma (MER+) (intrarenal inoculation) in NU/NU Swiss (nude) mice
Conditions: endpoint: mean tumor weight change, higher = larger tumour
In short: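 Mice with transplanted tumors are dosed with compound while controls get vehicle only. Survival or tumor burden is then assessed per group, and the treated value is expressed relative to control.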

[1] = dose: 300.0 mg/kg/injection, schedule: Q04DX004 (sc), vehicle: saline with Tween-80
[2] = dose: 600.0 mg/kg/injection, schedule: Q04DX004 (sc), vehicle: saline with Tween-80
[3] = dose: 300.0 mg/kg/injection, schedule: Q04DX004 (sc), vehicle: Klucel (hydroxypropylcellulose) (HPC)
[4] = dose: 100.0 mg/kg/injection, schedule: Q04DX004 (sc), vehicle: saline with Tween-80
[5] = dose: 200.0 mg/kg/injection, schedule: Q04DX004 (sc), vehicle: saline with Tween-80

**Q.** What does the source list for `[I][Hg][CH2]C1COC([CH2][Hg][I])CO1` (stereo unspecified)?
**A.** T/C [1]: 54 % of control; T/C [2]: 55 % of control; T/C (dose: 1200.0 mg/kg/injection, schedule: Q04DX004 (sc), vehicle: saline with Tween-80): 57 % of control; T/C (dose: 2400.0 mg/kg/injection, schedule: Q04DX004 (sc), vehicle: saline with Tween-80): 32 % of control

**Q.** Which results are given for `CCCCc1ccc(-n2c(C)c(COC(=O)NC)c(COC(=O)NC)c2C)cc1`?
**A.** T/C (dose: 50.0 mg/kg/injection, schedule: Q01DX010 (sc), vehicle: Klucel (hydroxypropylcellulose) (HPC)): 218 % of control; T/C (dose: 50.0 mg/kg/injection, schedule: Q04DX004 (sc), vehicle: Klucel (hydroxypropylcellulose) (HPC)): 53 % of control; T/C (dose: 100.0 mg/kg/injection, schedule: Q01DX010 (sc), vehicle: Klucel (hydroxypropylcellulose) (HPC)): 89 % of control; T/C (dose: 100.0 mg/kg/injection, schedule: Q04DX004 (sc), vehicle: Klucel (hydroxypropylcellulose) (HPC)): 53 % of control; T/C (dose: 200.0 mg/kg/injection, schedule: Q04DX004 (sc), vehicle: Klucel (hydroxypropylcellulose) (HPC)): 73 % of control; T/C (dose: 400.0 mg/kg/injection, schedule: Q04DX004 (sc), vehicle: Klucel (hydroxypropylcellulose) (HPC)): 49 % of control

**Q.** With `O=C(O)CSc1c(Cl)c(=O)oc2ccc(Cl)cc12` as the compound, how does the T/C [3] read?
**A.** The T/C was 99 % of control.

**Q.** Which T/C (dose: 37.5 mg/kg/injection, schedule: Q04DX004 (sc), vehicle: saline) does the source give for `Nc1ncnc2c1ncn2C1OC(CO)C(O)C1O` (stereo unspecified) here?
**A.** The T/C was 97 % of control.

**Q.** What about the T/C (dose: 75.0 mg/kg/injection, schedule: Q04DX004 (sc), vehicle: saline) of the same compound?
**A.** Its T/C is 84 % of control.

**Q.** And the T/C (dose: 150.0 mg/kg/injection, schedule: Q04DX004 (sc), vehicle: Klucel (hydroxypropylcellulose) (HPC))?
**A.** Its T/C is 67 % of control.

**Q.** And the T/C (dose: 150.0 mg/kg/injection, schedule: Q04DX004 (sc), vehicle: saline)?
**A.** The T/C was 44 % of control.

**Q.** What about the T/C [3] of the same compound?
**A.** The T/C was 78 % of control.

**Q.** What about the T/C (dose: 600.0 mg/kg/injection, schedule: Q04DX004 (sc), vehicle: Klucel (hydroxypropylcellulose) (HPC)) of the same compound?
**A.** Its T/C is 94 % of control.

**Q.** What about the T/C (dose: 1200.0 mg/kg/injection, schedule: Q04DX004 (sc), vehicle: Klucel (hydroxypropylcellulose) (HPC)) of the same compound?
**A.** Its T/C is 66 % of control.

**Q.** `CC(=O)NC(C=O)OCC=O` (stereo unspecified) was tested. Which T/C (dose: 100.0 mg/kg/injection, schedule: Q04DX004 (sc), vehicle: water) did it give?
**A.** The T/C was 106 % of control.

**Q.** And the T/C (dose: 200.0 mg/kg/injection, schedule: Q04DX004 (sc), vehicle: water)?
**A.** Its T/C is 121 % of control.

**Q.** How did the T/C [4] turn out when `CCCCOCN(COCCCC)C(C)Cc1ccccc1` (stereo unspecified) was run?
**A.** Its T/C is 110 % of control.

**Q.** And the T/C [5]?
**A.** Its T/C is 178 % of control.

**Q.** What about the T/C (dose: 400.0 mg/kg/injection, schedule: Q04DX004 (sc), vehicle: saline with Tween-80) of the same compound?
**A.** Its T/C is 98 % of control.

**Q.** What about the T/C (dose: 800.0 mg/kg/injection, schedule: Q04DX004 (sc), vehicle: saline with Tween-80) of the same compound?
**A.** Its T/C is 97 % of control.

**Q.** With `O=C(O[Si](Cc1ccccc1)(Cc1ccccc1)Cc1ccccc1)N(CCCl)CCCl` as the compound, how does the T/C [4] read?
**A.** Its T/C is 119 % of control.

**Q.** What about the T/C [5] of the same compound?
**A.** Its T/C is 121 % of control.

**Q.** What does the source list for `C[C@]12CC[C@H](O)CC1=CC[C@@H]1[C@@H]2CC[C@]2(C)C(=O)CC[C@@H]12`?
**A.** T/C (dose: 75.0 mg/kg/injection, schedule: Q04DX004 (sc), vehicle: saline with Tween-80): 110 % of control; T/C (dose: 150.0 mg/kg/injection, schedule: Q04DX004 (sc), vehicle: saline with Tween-80): 180 % of control; T/C [1]: 54 % of control; T/C [2]: 67 % of control

**Q.** What does the source list for `CCC/C=C/C=C/C(=O)OC1/C(=C/C(=O)OC)CC2CC(C(C)O)OC(=O)CC(O)CC3CC(OC(C)=O)C(C)(C)C(O)(CC4C/C(=C/C(=O)OC)CC(/C=C/C(C)(C)C1(O)O2)O4)O3` (stereo unspecified)?
**A.** T/C (dose: 0.25 mg/kg/injection, schedule: Q04DX004 (sc), vehicle: saline + alcohol): 95 % of control; T/C (dose: 0.5 mg/kg/injection, schedule: Q04DX004 (sc), vehicle: saline + alcohol): 110 % of control; T/C (dose: 1.0 mg/kg/injection, schedule: Q04DX004 (sc), vehicle: saline + alcohol): 33 % of control; T/C (dose: 2.0 mg/kg/injection, schedule: Q04DX004 (sc), vehicle: saline + alcohol): 47 % of control; T/C (dose: 4.0 mg/kg/injection, schedule: Q04DX004 (sc), vehicle: saline + alcohol): 53 % of control; T/C (dose: 8.0 mg/kg/injection, schedule: Q04DX004 (sc), vehicle: saline + alcohol): 88 % of control
